# Assay results taken from BindingDB's records for doi:10.1007/s002109900044 (Universitat Wurzburg, 1999).
# Columns and labels:
# Adenosine receptor A1 = molecular target: T1, Adenosine receptor A1 (Homo sapiens, UniProt P30542)
# T1 sequence (P30542 whole entry): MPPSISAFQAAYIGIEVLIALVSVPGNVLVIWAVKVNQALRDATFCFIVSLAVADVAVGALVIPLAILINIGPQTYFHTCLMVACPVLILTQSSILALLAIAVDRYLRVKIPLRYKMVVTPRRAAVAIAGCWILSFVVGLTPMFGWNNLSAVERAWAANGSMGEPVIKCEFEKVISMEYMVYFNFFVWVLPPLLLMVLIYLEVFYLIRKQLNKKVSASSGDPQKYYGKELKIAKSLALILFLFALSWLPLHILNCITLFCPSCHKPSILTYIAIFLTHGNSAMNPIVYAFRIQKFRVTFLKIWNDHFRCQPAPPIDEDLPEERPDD
# Adenosine receptor A2a = Adenosine receptor A2a (Homo sapiens, UniProt P29274)
# Adenosine receptor A3 = molecular target: T2, Adenosine receptor A3 (Homo sapiens, UniProt P0DMS8)
# T2 sequence (P0DMS8 whole entry): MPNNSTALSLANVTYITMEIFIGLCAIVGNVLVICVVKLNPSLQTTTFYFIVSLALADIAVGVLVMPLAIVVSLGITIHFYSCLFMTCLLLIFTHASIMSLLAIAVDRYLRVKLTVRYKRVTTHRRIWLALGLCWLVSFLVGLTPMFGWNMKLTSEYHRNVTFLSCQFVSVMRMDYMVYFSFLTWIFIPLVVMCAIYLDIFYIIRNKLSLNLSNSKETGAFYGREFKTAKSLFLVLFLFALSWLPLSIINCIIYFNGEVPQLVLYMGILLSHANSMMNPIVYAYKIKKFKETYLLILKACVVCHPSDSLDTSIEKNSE
# Adenosine receptor A2a, sequence (P29274 whole entry): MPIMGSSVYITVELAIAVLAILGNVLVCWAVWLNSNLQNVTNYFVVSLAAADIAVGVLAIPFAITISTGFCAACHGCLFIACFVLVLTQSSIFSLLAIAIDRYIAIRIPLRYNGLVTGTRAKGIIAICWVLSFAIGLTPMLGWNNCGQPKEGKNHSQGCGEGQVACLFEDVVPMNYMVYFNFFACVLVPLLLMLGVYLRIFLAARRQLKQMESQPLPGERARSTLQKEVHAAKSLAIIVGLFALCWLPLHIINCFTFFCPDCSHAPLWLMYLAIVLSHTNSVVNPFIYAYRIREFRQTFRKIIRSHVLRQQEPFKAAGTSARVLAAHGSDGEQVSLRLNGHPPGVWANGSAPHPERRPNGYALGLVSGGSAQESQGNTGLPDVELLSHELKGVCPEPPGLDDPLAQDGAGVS
Ki (Adenosine receptor A1),Ki (Adenosine receptor A2a),Ki (Adenosine receptor A3),SMILES
38 nM,25 nM,4.7 nM,"CCNC(=O)C1OC(n2cnc3c(N)nc(C#CCCCC#N)nc32)C(O)C1O (stereo not given) [5-[6-Amino-2-(5-cyano-pent-1-ynyl)-purin-9-yl]-3,4-dihydroxy-tetrahydro-furan-2-carboxylic acid ethylamide]"
180 nM,,27 nM,"CCNC(=O)C1OC(n2cnc3c(N)nc(C#CCCCc4ccccc4)nc32)C(O)C1O (stereo not given) [5-[6-Amino-2-(5-phenyl-pent-1-ynyl)-purin-9-yl]-3,4-dihydroxy-tetrahydro-furan-2-carboxylic acid ethylamide]"
200 nM,470 nM,9.3 nM,"CCNC(=O)C1OC(n2cnc3c(N)nc(C#Cc4ccc(C(N)=O)cc4)nc32)C(O)C1O (stereo not given) [5-{6-amino-2-[2-(4-carbamoylphenyl)ethynyl]-9H-purin-9-yl}-N-ethyl-3,4-dihydroxyoxolane-2-carboxamide]"
140 nM,510 nM,12 nM,"CCNC(=O)C1OC(n2cnc3c(N)nc(C#Cc4ccco4)nc32)C(O)C1O (stereo not given) [5-{6-amino-2-[2-(furan-2-yl)ethynyl]-9H-purin-9-yl}-N-ethyl-3,4-dihydroxyoxolane-2-carboxamide]"
1.9 nM,39 nM,5.5 nM,"CCNC(=O)[C@H]1O[C@@H](n2cnc3c(N)nc(C#C[C@@H](O)c4ccccc4)nc32)[C@H](O)[C@@H]1O [6R, (R)-PHPNECA]"
2.1 nM,2 nM,0.75 nM,"CCNC(=O)C1OC(n2cnc3c(N)nc(C#C[C@H](O)c4ccccc4)nc32)C(O)C1O (stereo partly drawn) [6S, (S)-PHPNECA]"
,6.4 nM,2.4 nM,"CCCCC#Cc1nc(N)c2ncn([C@@H]3O[C@H](C(=O)NCC)[C@H](O)C3O)c2n1 (stereo partly drawn) [(2S,3R,5R)-5-[6-amino-2-(hex-1-yn-1-yl)-9H-purin-9-yl]-N-ethyl-3,4-dihydroxyoxolane-2-carboxamide]"
2.7 nM,3.1 nM,0.42 nM,"CCNC(=O)C1OC(n2cnc3c(N)nc(C#CC(O)c4ccccc4)nc32)C(O)C1O (stereo not given) [R,S-PHPNECA]"

# Further lines, the compound ahead of its results:
SMILES,Ki (Adenosine receptor A1),Ki (Adenosine receptor A2a),Ki (Adenosine receptor A3)
"CCNC(=O)C1OC(n2cnc3c(N)nc(C#CCOc4ccccc4)nc32)C(O)C1O (stereo not given) [2-substituted NECA derivatives, 8]",8 nM,180 nM,14 nM
"CCNC(=O)C1OC(n2cnc3c(N)nc(C#Cc4ccc(CCC(=O)O)cc4)nc32)C(O)C1O (stereo not given) [3-{4-[6-Amino-9-(5-ethylcarbamoyl-3,4-dihydroxy-tetrahydro-furan-2-yl)-9H-purin-2-ylethynyl]-phenyl}-propionic acid]",1000 nM,2200 nM,42 nM
"CCNC(=O)C1OC(n2cnc3c(N)nc(C#CC4=CCCCC4)nc32)C(O)C1O (stereo not given) [5-(6-Amino-2-cyclohex-1-enylethynyl-purin-9-yl)-3,4-dihydroxy-tetrahydro-furan-2-carboxylic acid ethylamide]",87 nM,100 nM,28 nM
"CCNC(=O)C1OC(n2cnc3c(N)nc(C#Cc4ccccc4)nc32)C(O)C1O (stereo not given) [5-(6-Amino-2-phenylethynyl-purin-9-yl)-3,4-dihydroxy-tetrahydro-furan-2-carboxylic acid ethylamide]",560 nM,620 nM,6.2 nM
"CCNC(=O)C1OC(n2cnc3c(N)nc(C#Cc4nccs4)nc32)C(O)C1O (stereo not given) [5-(6-Amino-2-thiazol-2-ylethynyl-purin-9-yl)-3,4-dihydroxy-tetrahydro-furan-2-carboxylic acid ethylamide]",12 nM,,3.7 nM
"CCNC(=O)C1OC(n2cnc3c(N)nc(C#CC(C)(O)c4ccccc4)nc32)C(O)C1O (stereo not given) [5-[6-Amino-2-(3-hydroxy-3-phenyl-but-1-ynyl)-purin-9-yl]-3,4-dihydroxy-tetrahydro-furan-2-carboxylic acid ethylamide]",9.4 nM,56 nM,2.4 nM
"CCNC(=O)C1OC(n2cnc3c(N)nc(C#CC(C)O)nc32)C(O)C1O (stereo not given) [5-[6-Amino-2-(3-hydroxy-but-1-ynyl)-purin-9-yl]-3,4-dihydroxy-tetrahydro-furan-2-carboxylic acid ethylamide]",3.3 nM,14 nM,1.5 nM
"CCNC(=O)C1OC(n2cnc3c(N)nc(C#CCC(C)O)nc32)C(O)C1O (stereo not given) [5-[6-Amino-2-(4-hydroxy-pent-1-ynyl)-purin-9-yl]-3,4-dihydroxy-tetrahydro-furan-2-carboxylic acid ethylamide]",40 nM,14 nM,4.1 nM
